The structures appear in SMILES notation.

Assay [1] relates to adult patients with highly active, non-cirrhotic NASH. Nature of the assay: NATIVE phase 2b trial, histological response on liver biopsy after 24 weeks of lanifibranor. The format is in vivo, human. The text has this: Patients were eligible for inclusion if they were 18 years of age or older and had non-cirrhotic NASH (the diagnosis of which required a Steatosis, Activity, Fibrosis [SAF] grade of 1 or higher for steatosis, hepatocellular ballooning and lobular inflammation on liver biopsy). A score of 3 or higher on the SAF-A (the activity part of the SAF scoring system that incorporates the scores for hepatocellular ballooning and lobular inflammation) was also a criterion for eligibility. Patients with stage F4 fibrosis, classified according to the criteria of both the SAF and NASH Clinical Research Network (NASH CRN) were excluded from the study. Patients were randomly assigned in a 1:1:1 ratio to receive 800 or 1200 mg lanifibranor or placebo once daily for 24 weeks. Liver biopsy was obtained at baseline and at the end of treatment. The primary end point of the NATIVE study was defined as a decrease of at least 2 points from baseline to Week 24 (end of treatment) in the SAF-A score and no worsening of fibrosis. Secondary histologic end points included resolution of NASH (defined as a ballooning grade of 0 and a lobular inflammation grade of ≤1) and no worsening of fibrosis; improvement in fibrosis of at least 1 stage and no worsening of NASH (i.e., no worsening in either steatosis, ballooning, or lobular inflammation); Nonalcoholic Fatty Liver Disease Activity Score (NAS) improvement (defined as a decrease of >2 points from baseline to week 24 in the NAS) and no worsening of fibrosis; resolution of NASH and an improvement in fibrosis stage of at least 1 (as a composite end point); change in scores for the components of the SAF and NASH CRN scoring system (steatosis, activity, inflammation, ballooning, and fibrosis); and change in the modified Ishak score. Non-histologic secondary endpoints included changes in a panel of serum biomarkers related to metabolism, inflammation tissue injury and fibrosis. Patients receiving lanifibranor 800 or 1200 mg per day were pooled and those with pre- and post-treatment liver biopsies were selected (n=142). Post-treatment biopsies were considered if they occurred within 14 days following last lanifibranor intake. The following histological endpoint according to NASH-CRN criteria was considered: NASH resolution and fibrosis improvement of at least 1 stage (E1). In the NATIVE trial, from February 2017 through July 2019, 247 patients were randomly assigned to receive 1200 mg of lanifibranor (N=83), 800 mg of lanifibranor (N=83), or placebo (N=81) orally once daily for 6 months. A total of 228 patients completed the trial, 77 in each lanifibranor group and 74 in the placebo group. Reasons for discontinuation of the trial regimen have been reported elsewhere. Finally, among the 154 patients treated with lanifibranor at both doses, 142 patients (N=70 and N=72 patients treated with 800 or 1200 mg per day, respectively) presented with pre- and post-treatment liver biopsies within the time frame required for the present work and were included in the analysis population for signature development.

Assay [2] has the same test system. The note with it: cited from earlier work.

As to `O=C(O)CCCc1cc2cc(Cl)ccc2n1S(=O)(=O)c1ccc2ncsc2c1` [lanifibranor, 4-[1-(1,3-benzothiazol-6-ylsulfonyl)-5-chloroindol-2-yl] butanoic acid], the “Resolution of NASH and improvement of liver fibrosis ≥1 Stage (E1), number of patients reaching endpoint” value amounted to 17 patients in assay [1] (800 mg once daily, N=70); 25 patients in assay [1] (1200 mg once daily, N=72); 42 patients in assay [1] (pooled lanifibranor group (800 or 1200 mg once daily), N=142). In addition, the “Resolution of NASH and improvement of liver fibrosis ≥1 Stage (E1), patients reaching endpoint” value in assay [1] (800 mg once daily, N=70) is 24%; in assay [1] (1200 mg once daily, N=72) it was 35%; in assay [1] (pooled lanifibranor group (800 or 1200 mg once daily), N=142 with pre- and post-treatment biopsies), 30%. The “Percentage of patients with a decrease of at least 2 points in SAF-A score without worsening of fibrosis, compared to placebo” value in assay [2] (daily dose of 1200 mg, versus placebo) was “significantly higher”. Also, the “Secondary endpoints (NASH resolution and fibrosis improvement, NASH resolution without worsening of fibrosis, improvement of fibrosis without worsening of NASH), compared to placebo” value in assay [2] (lanifibranor groups versus placebo, NASH-CRN) is listed as “more favorable than placebo”.

(Values after US20240408069A1, “NON-INVASIVE MONITORING OF LIVER DISEASE TREATMENT” (INVENTIVA, priority 2023, published 2024).)
